# Counter-ions that a name gives are not always drawn. Like-named read-outs stand apart in the source and are kept apart here.
# What was measured:
# [1] = system: NIH-3T3 cells; assay: Hoechst/propidium iodide cell death assay in NIH-3T3; type: cell-based; conditions: for cytotoxicity at 20 µM: Mus musculus, NIH3T3, 24 h, 24 h, read-out: Percentage of cell death % 24h NIH3t3
# From the text: (§1) A high-content imaging system (PerkinElmer; Operetta CLS), was used to quantify cell death and apoptosis by calculating the number of propidium iodide-positive cells relative to Hoechst-positive cells, and the number of Annexin V-positive cells relative to Hoechst-positive cells, respectively.
# [2] = system: HT-29 cells; assay: Hoechst/propidium iodide cell death assay in HT-29; type: cell-based, human; conditions: Homo sapiens
# From the text: as §1
# [3] = molecular target: T1, 14-3-3ζ:BAD-112-136F interactions (Homo sapiens, UniProt P63104); assay: BRET sensor screen for disruption of 14-3-3ζ-Rluc8:BAD-112-136F-mCitrine in living NIH-3T3 cells; type: cell-based, murine; set-up: inhibition: dose or concentration left out as unconfirmed; conditions: NIH3T3, 3 h, read-out: BRET reduction on NIH-3T3; for inhibition: NIH-3T3 cells, hits from the primary screen; for inhibition at 20 µM: NIH-3T3 expressing BRET sensor, 3 h
# T1 construct: expressed in transfected cells; host or cells: NIH-3T3 fibroblasts, bi-directional pBI-CMV1 plasmid
# T1 sequence (P63104 1-245): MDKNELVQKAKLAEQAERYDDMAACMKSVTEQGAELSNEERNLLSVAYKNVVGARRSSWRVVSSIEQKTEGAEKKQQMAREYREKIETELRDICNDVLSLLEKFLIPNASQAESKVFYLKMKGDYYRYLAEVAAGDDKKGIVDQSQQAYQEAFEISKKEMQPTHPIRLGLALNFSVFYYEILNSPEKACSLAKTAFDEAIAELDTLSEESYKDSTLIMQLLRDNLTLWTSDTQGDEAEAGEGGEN
# Description: The Z’-score, which evaluates the robustness of an HTS assay readout, was calculated according to standard protocols. For the HTS, 384-well plates were coated with 100 μg/mL poly-L-ornithine (Sigma, Missouri, United States; #P3655) overnight at 37 °C, followed by rinsing with sterilized water. NIH-3T3 cells were transfected with the BRET sensor two days prior to experimentation, followed by replating onto the pre-coated 384-well plates at a density of 20,000 cells/well. After 24 h of incubation at 37 °C, growth media was replaced by Krebs buffer (pH 7.4).
# [4] = HT-29, 24 h, 20 µM, 24 h, read-out: Percentage of cell death % 24h HT-29
# [5] = HT-29, 48 h, HT-29, 48h, 20 μM, read-out: Percentage of cell death % 48h, HT-29
SMILES,cytotoxicity at 20 µM [1],"Percentage of cell death % 48h, NIH3T3 [1]","cytotoxicity at 20 µM [2, 4]","cytotoxicity at 20 µM [2, 5]",inhibition [3],inhibition at 20 µM [3]
C(=C\c1ccccc1)/CN1CCN(C(c2ccccc2)c2ccccc2)CC1 [Cinnarizine],0.412%,0.3398%,0.381%,1.26%,,
CN(C)CCCN1c2ccccc2CCc2ccc(Cl)cc21 [Clomipramine HCl],7.72%,8.7601%,0.662%,2.3%,27%,27%
Clc1ccccc1C(c1ccccc1)(c1ccccc1)n1ccnc1 [Clotrimazole],0.937%,1.657%,0.234%,0.787%,30.1%,30.1%
CN(C)c1ccc(C(=C2C=CC(=[N+](C)C)C=C2)c2ccc(N(C)C)cc2)cc1 [Crystal Violet],94.3%,91.1305%,94.9%,95.4%,75.6%,75.6%
"COc1cc2ncnc(Nc3ccc(F)c(Cl)c3)c2cc1NC(=O)/C=C/CN1CCCCC1 [Dacomitinib (PF299804, PF299), Dacomitinib]",86.8%,75.5856%,22.7%,84.1%,26.7%,26.7%
C#C[C@]1(O)CC[C@H]2[C@@H]3CCC4=CCCC[C@@H]4[C@H]3C(=C)C[C@@]21CC [Desogestrel],16.1%,8.012%,1.59%,2.12%,40.6%,40.6%
CC/C(=C(/CC)c1ccc(O)cc1)c1ccc(O)cc1 [Diethylstilbestrol],11.2%,3.653%,0.869%,2.76%,28.3%,28.3%
Clc1ccc(COC(Cn2ccnc2)c2ccc(Cl)cc2Cl)cc1 (centres unmarked) [Econazole nitrate],14.2%,7.996%,8.57%,13%,48.3%,48.3%
CC1(C)[C@@H](O)CC[C@]2(C)[C@H]3C(=O)C=C4[C@@H]5C[C@@](C)(C(=O)O)CC[C@]5(C)CC[C@@]4(C)[C@]3(C)CC[C@@H]12 [Enoxolone],4.15%,0.6522%,0.697%,1.61%,42.9%,42.9%
CN1CCN(c2ccc(C(=O)Nc3n[nH]c4ccc(Cc5cc(F)cc(F)c5)cc34)c(NC3CCOCC3)c2)CC1 [Entrectinib],81.5%,85.5203%,58.1%,80.4%,56.8%,56.8%
CCOC(=O)C1=C(C)NC(C)=C(C(=O)OC)C1c1cccc(Cl)c1Cl (centres unmarked) [Felodipine],6.69%,43.2531%,3.81%,6.71%,27.6%,27.6%
Clc1ccc(C(Cn2ccnc2)OCc2ccc(Sc3ccccc3)cc2)c(Cl)c1 (centres unmarked) [Fenticonazole Nitrate],0.773%,1.538%,0.786%,1.58%,31.7%,31.7%
Clc1ccc(CSC(Cn2ccnc2)c2ccc(Cl)cc2Cl)cc1 (centres unmarked) [Sulconazole Nitrate],10.8%,9.7879%,7.98%,12.2%,,

# Reference: article PMC12603070, “A high-throughput screening approach to discover potential colorectal cancer chemotherapeutics: repurposing drugs to identify novel disruptors of 14-3-3 proteins” (Cell Death & Disease, 2025)
